In US20170266154A1, “METHOD FOR TREATING ALZHEIMER'S DISEASE AND 2, 3-BIPHOSPHOGLYCERATE METABOLISM DISORDER INDUCED” (National Sun Yat-sen University, priority 2016, published 2017):

Biological target: hemoglobin (Homo sapiens, UniProt P68871+P69905)
Assay: hemoglobin-oxygen equilibrium curves (P50 value, oxygen saturation fraction)
Assay type: biochemical
Details: for effect in combination with 2,3-BPG on hemoglobin modulation: FIG. 2
Description: The oxygen affinity of hemoglobin was represented by P50 value. The P50 value was the required partial pressure of oxygen to achieve 50% oxygen saturation.

[1] = PO2 20 mmHg, 2,3-BPG 1.2 mM, alone or after treating with a phthalide compound (FIG. 7)

Sequence of hemoglobin (P69905 2-142 limits assumed): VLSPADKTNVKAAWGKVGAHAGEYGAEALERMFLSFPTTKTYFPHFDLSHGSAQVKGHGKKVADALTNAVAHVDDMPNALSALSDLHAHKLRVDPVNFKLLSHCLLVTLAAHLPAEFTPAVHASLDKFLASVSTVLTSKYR
Sequence of hemoglobin (P68871 2-147 limits assumed): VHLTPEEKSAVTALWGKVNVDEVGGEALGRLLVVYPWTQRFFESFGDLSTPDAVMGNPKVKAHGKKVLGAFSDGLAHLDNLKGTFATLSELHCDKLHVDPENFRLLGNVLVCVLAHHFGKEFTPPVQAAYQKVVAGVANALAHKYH

## O=C(O)C(COP(=O)(O)O)OP(=O)(O)O (centres unmarked) [2,3-BPG, 2,3-bisphosphorglycerate]
[1]
  oxygen release efficiency: 40%
  oxygen saturation level / fraction of hemoglobin: about 60%
About 4 mM 2,3-BPG, no phthalide compound
  P50 value of hemoglobin: 18.8 mmHg
Oxygen partial pressure 20 mmHg, 12 mM 2,3-BPG, hemoglobin without 2,3-BPG 20%
  oxygen release efficiency of hemoglobin: 65%
Oxygen partial pressure 20 mmHg, 12 mM 2,3-BPG, hemoglobin without 2,3-BPG about 80%
  oxygen saturation fraction of hemoglobin: ~35%
Without or after administration of phthalide compounds (FIG. 6)
  2,3-BPG required for hemoglobin to reach a P50 value of 18.8 mmHg (approximately the same or higher): about 4 mM

## CCC/C=C1\OC(=O)C2=C1CCC=C2 [Z-Ligustilide, Z-ligustilide]
  effect in combination with 2,3-BPG on hemoglobin modulation: synergistic effect

## CCC/C=C1\OC(=O)C2=C1CC[C@@H](O)[C@@H]2O [Senkyunolide I, senkyunolide I]
  effect in combination with 2,3-BPG on hemoglobin modulation: synergistic effect
